Laboratory results as given in PMC6560083, “A mechanism to prevent production of reactive oxygen species by Escherichia coli respiratory complex I” (Nature Communications, 2019).

Experiments:
[1] = target: T1, NuoEF of Aquifex aeolicus complex I (Aquifex aeolicus, UniProt O66841); test: X-ray crystal structure, soaked crystals; assay type: binding
T1 construct: gene nuoF; electron input subcomplex, NuoE (18 kDa) and NuoF (44 kDa) heterodimer, C-terminal hexahistidine tag on NuoF, expressed in E. coli; with NADH-quinone oxidoreductase subunit E
T1 sequence (O66841 1-426): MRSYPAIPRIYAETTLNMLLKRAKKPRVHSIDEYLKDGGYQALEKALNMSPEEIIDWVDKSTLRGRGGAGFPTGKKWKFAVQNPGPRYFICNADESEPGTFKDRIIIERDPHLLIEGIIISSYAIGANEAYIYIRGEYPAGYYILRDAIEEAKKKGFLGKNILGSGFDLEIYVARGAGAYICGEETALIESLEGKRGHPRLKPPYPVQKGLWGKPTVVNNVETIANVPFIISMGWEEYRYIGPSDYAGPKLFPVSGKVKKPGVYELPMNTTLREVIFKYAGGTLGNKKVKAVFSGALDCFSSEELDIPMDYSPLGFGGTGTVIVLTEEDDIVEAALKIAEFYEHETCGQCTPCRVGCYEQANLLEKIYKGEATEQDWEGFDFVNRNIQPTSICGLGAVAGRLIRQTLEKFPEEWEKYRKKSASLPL
T1 sequence (O66842 1-160 partner): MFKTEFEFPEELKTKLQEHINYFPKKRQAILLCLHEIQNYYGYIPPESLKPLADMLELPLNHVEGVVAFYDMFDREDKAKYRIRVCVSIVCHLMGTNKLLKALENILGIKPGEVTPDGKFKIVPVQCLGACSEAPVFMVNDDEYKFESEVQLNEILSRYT

[2] = target: T2, NuoEF of Aquifex aeolicus complex I (Aquifex aeolicus, UniProt O66841, S96M); test: X-ray crystal structure, soaked crystals; assay type: binding
T2 construct: gene nuoF; electron input subcomplex, NuoE (18 kDa) and NuoF (44 kDa) heterodimer, C-terminal hexahistidine tag on NuoF, expressed in E. coli; with NADH-quinone oxidoreductase subunit E

[3] = target: T1, NuoEF of Aquifex aeolicus complex I; test: X-ray crystal structure; assay type: binding; conditions: bound cofactor of NuoF, oxidized (6HL2) and dithionite-reduced (6HL4)
[4] = target: T3, NuoEF of Aquifex aeolicus complex I (Aquifex aeolicus, UniProt O66841); test: X-ray crystal structure, soaked crystals; assay type: binding; conditions: oxidized
T3 construct: gene nuoF; electron input subcomplex, NuoE (18 kDa) and NuoF (44 kDa) heterodimer, C-terminal hexahistidine tag on NuoF, expressed in E. coli; with NADH-quinone oxidoreductase subunit E

[5] = target: T3, NuoEF of Aquifex aeolicus complex I; test: X-ray crystal structure, soaked crystals; assay type: binding; conditions: oxidized; ADP moiety defined, nicotinamide ring and its ribose not seen
purified protein = substrate: NC(=O)C1=CN([C@@H]2O[C@H](COP(=O)(O)OP(=O)(O)OC[C@H]3O[C@@H](n4cnc5c(N)ncnc54)[C@H](O)[C@@H]3O)[C@@H](O)[C@H]2O)C=CC1; test: purified protein; assay type: biochemical, Escherichia coli; conditions: 50 mM MES/NaOH, 50 mM NaCl, pH 6.0, electron acceptor of the Km titration not clearly stated (decyl-ubiquinone or ferricyanide)
[6] = target: T4, Aquifex aeolicus NuoF variant S96M (Aquifex aeolicus, UniProt O66841 1-426, S96M^F); test: crystal structure; NuoEF subcomplex crystallized at 20 °C by sitting drop vapor diffusion, 0.1 M Tris/HCl, 1.0 M sodium citrate, pH 6.9-7.1; air-oxidized, dithionite- or NADH-reduced, with and without soaked NAD+ or NADH; conditions: both partners purified
T4 construct: NuoF of Aquifex aeolicus complex I with S96 exchanged for methionine (the residue at the homologous position of E. coli NuoF); The His tag is told for the original NuoF; the variants were purified in the same way (Ni2+-IDA); also called S96M^F; NuoEF S96M^F; source: overproducing E. coli strain, purified together with NuoE (Source 15Q anion exchange, Ni2+-IDA, size exclusion)
T4 sequence (looked up): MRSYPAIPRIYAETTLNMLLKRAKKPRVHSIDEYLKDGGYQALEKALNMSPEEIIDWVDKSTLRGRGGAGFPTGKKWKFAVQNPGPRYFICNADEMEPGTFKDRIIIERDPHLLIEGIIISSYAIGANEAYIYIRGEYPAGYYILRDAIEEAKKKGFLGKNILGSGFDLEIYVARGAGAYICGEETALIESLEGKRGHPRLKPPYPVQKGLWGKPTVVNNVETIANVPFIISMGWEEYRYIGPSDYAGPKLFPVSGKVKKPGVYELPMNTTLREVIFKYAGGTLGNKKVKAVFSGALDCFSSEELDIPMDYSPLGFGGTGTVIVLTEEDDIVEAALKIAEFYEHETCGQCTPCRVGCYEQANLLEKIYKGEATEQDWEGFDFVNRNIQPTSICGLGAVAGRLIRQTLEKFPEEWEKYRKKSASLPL

[7] = target: T5, Aquifex aeolicus complex I subunit NuoF (Aquifex aeolicus, UniProt O66841 1-426); test: as above; conditions: both partners purified
T5 construct: NuoF, subunit of the NADH:ubiquinone oxidoreductase (complex I) of Aquifex aeolicus; 44 kDa; the model contains 418 amino acids, eight residues at the C-terminus and the following hexahistidine tag not defined; Co-produced and co-purified with NuoE as the subcomplex NuoEF; also called original NuoEF (subunit F); source: overproducing E. coli strain, purified together with NuoE (Source 15Q anion …)
T5 sequence (looked up): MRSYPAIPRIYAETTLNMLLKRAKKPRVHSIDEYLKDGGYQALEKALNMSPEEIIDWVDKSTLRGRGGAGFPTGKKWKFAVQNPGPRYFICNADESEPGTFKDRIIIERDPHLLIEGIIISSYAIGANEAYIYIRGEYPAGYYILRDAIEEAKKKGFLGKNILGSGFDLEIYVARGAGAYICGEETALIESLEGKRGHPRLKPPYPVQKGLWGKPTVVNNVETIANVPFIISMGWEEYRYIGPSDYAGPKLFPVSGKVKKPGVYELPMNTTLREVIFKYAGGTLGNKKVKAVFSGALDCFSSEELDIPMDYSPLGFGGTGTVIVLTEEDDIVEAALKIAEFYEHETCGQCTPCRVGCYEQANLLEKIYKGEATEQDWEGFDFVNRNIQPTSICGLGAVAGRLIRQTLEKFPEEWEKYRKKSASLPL

In the case of `NC(=O)C1=CN([C@@H]2O[C@H](COP(=O)(O)OP(=O)(O)OC[C@H]3O[C@@H](n4cnc5c(N)ncnc54)[C@H](O)[C@@H]3O)[C@@H](O)[C@H]2O)C=CC1` [NADH], the “X-ray crystal structure, soaked crystals” value ([1]; NADH soak, reduced state, 1.8-1.9 Å, nicotinamide in tight position, 6HLA with dithionite plus NADH) is reported as “crystals of NuoEF were soaked with NAD^+, with NADH and with NADH plus dithionite” and the “X-ray crystal structure, soaked crystals” value ([2]; reduced) is reported as 6Q9K (variant S96M, reduced with NADH).

With `Cc1cc2nc3c(=O)[nH]c(=O)nc-3n(C[C@H](O)[C@H](O)[C@H](O)COP(=O)(O)O)c2cc1C` [FMN] the X-ray crystal structure [3] was “Subunit NuoF binds the FMN cofactor as well as cluster N3”.

For `NC(=O)c1ccc[n+]([C@@H]2O[C@H](COP(=O)(O)OP(=O)(O)OC[C@H]3O[C@@H](n4cnc5c(N)ncnc54)[C@H](O)[C@@H]3O)[C@@H](O)[C@H]2O)c1` [NAD^+], the “X-ray crystal structure, soaked crystals” value [4] was 6HLJ (variant G129S, oxidized with NAD^+), the “X-ray crystal structure, soaked crystals” value [5] was “the oxidized G129D^E variant was soaked with NAD^+” and the “X-ray crystal structure, soaked crystals” value ([1]; oxidized state, 10 mM NAD+ soak, 2.0 Å, loose position, 6HLI: dithionite-reduced, near tight position) was “crystals of NuoEF were soaked with NAD^+, with NADH and with NADH plus dithionite”. The “X-ray crystal structure, soaked crystals” value ([2]; oxidized, 3.22 Å) was 6R7P (variant S96M, oxidized with NAD^+).

B1: E. coli complex I (Escherichia coli K-12) (protein)
chain: MKNIIRTPETHPLTWRLRDDKQPVWLDEYRSKNGYEGARKALTGLSPDEIVNQVKDAGLKGRGGAGFSTGLKWSLMPKDESMNIRYLLCNADEMEPGTYKDRLLMEQLPHLLVEGMLISAFALKAYRGYIFLRGEYIEAAVNLRRAIAEATEAGLLGKNIMGTGFDFELFVHTGAGRYICGEETALINSLEGRRANPRSKPPFPATSGAWGKPTCVNNVETLCNVPAILANGVEWYQNISKSKDAGTKLMGFSGRVKNPGLWELPFGTTAREILEDYAGGMRDGLKFKAWQPGGAGTDFLTEAHLDLPMEFESIGKAGSRLGTALAMAVDHEINMVSLVRNLEEFFARESCGWCTPCRDGLPWSVKILRALERGEGQPGDIETLEQLCRFLGPGKTFCAHAPGAVEPLQSAIKYFREEFEAGIKQPFSNTHLINGIQPNLLKERW
notes: with NADH-quinone oxidoreductase subunit E; NADH-quinone oxidoreductase subunit G; NADH-quinone oxidoreductase subunit B; NADH-quinone oxidoreductase subunit C/D; NADH-quinone oxidoreductase subunit I; NADH-quinone oxidoreductase subunit A; NADH-quinone oxidoreductase subunit H; NADH-quinone oxidoreductase subunit J; NADH-quinone oxidoreductase subunit K; NADH-quinone oxidoreductase subunit L; …
Work on B1 yielded a Km (purified protein) of 13 ± 1 µM.

B2: Aquifex aeolicus complex I subunit NuoE (natural protein)
chain: MFKTEFEFPEELKTKLQEHINYFPKKRQAILLCLHEIQNYYGYIPPESLKPLADMLELPLNHVEGVVAFYDMFDREDKAKYRIRVCVSIVCHLMGTNKLLKALENILGIKPGEVTPDGKFKIVPVQCLGACSEAPVFMVNDDEYKFESEVQLNEILSRYT
notes: NuoE, subunit of the NADH:ubiquinone oxidoreductase (complex I) of Aquifex aeolicus; 18 kDa; the model comprises 154 amino acids, the first six N-terminal residues not defined (residues up to 160); holds the [2Fe-2S] cluster N1a; Co-produced and co-purified with His-tagged NuoF as the subcomplex NuoEF; also called original NuoEF (subunit E); source: overproducing E. coli strain, purified together …
B2: binds [6]; binds [7].

B3: Aquifex aeolicus NuoE variant G129D (natural protein)
chain: MFKTEFEFPEELKTKLQEHINYFPKKRQAILLCLHEIQNYYGYIPPESLKPLADMLELPLNHVEGVVAFYDMFDREDKAKYRIRVCVSIVCHLMGTNKLLKALENILGIKPGEVTPDGKFKIVPVQCLDACSEAPVFMVNDDEYKFESEVQLNEILSRYT
notes: NuoE of Aquifex aeolicus complex I with G129 exchanged for aspartate; also called G129D^E; Asp-variant of NuoEF; source: E. coli, purified together with NuoF (Source 15Q anion exchange, Ni2+-IDA, size exclusion)
B3: binds [7].

B4: Aquifex aeolicus NuoE variant G129S (natural protein)
chain: MFKTEFEFPEELKTKLQEHINYFPKKRQAILLCLHEIQNYYGYIPPESLKPLADMLELPLNHVEGVVAFYDMFDREDKAKYRIRVCVSIVCHLMGTNKLLKALENILGIKPGEVTPDGKFKIVPVQCLSACSEAPVFMVNDDEYKFESEVQLNEILSRYT
notes: NuoE of Aquifex aeolicus complex I with G129 exchanged for serine; also called G129S^E; Ser-variant of NuoEF; source: E. coli, purified together with NuoF (Source 15Q anion exchange, Ni2+-IDA, size exclusion)
B4: binds [7].
